Source: ChEMBL document CHEMBL6134780, “Halogenated retinoid derivatives as dual RARα and RXRα modulators for treating acute promyelocytic leukemia cells” (Eur J Med Chem, 2024)
The source made the active and inactive calls. The calls are words filed in the database; no cut-off is given here.

Columns and labels:
[1] = molecular target: Retinoic acid receptor RXR-alpha (Homo sapiens, UniProt P19793); experiment: Binding affinity to N-terminal His-tagged human RXRalpha LBD extracted from Escherichia coli BL21 (DE3) cells assessed as dissociation constant by fluorescence quenching assay
NB-4 [2] = experiment: Cell cycle arrest in human NB4 cells assessed as accumulation of cells at G2/M phase at 1 uM incubated for 12 hrs by DAPI staining based flow cytometric analysis (reference value: 26 %); assay type: functional
[3] = Induction of apoptosis in human ATRA-resistant NB4-LR2 cells assessed as late apoptotic cells at 1 uM incubated for 24 hrs by Annexin V-FITC/PI staining based flow cytometric analysis (reference value: 5.62 %); assay type: functional
NB-4 [4] = experiment: Induction of cell differentiation in human NB4 cells assessed as NBT positive cells at 0.5 uM incubated for 6 days by Nitro Blue tetrazolium chloride based microscopic analysis (reference value: 0 %); assay type: functional; details: time 6 day
NB-4 [5] = experiment: Antiproliferative activity against human NB4 cells assessed as inhibition of cell viability at 0.125 uM incubated for 3 days by CCK8 assay relative to control; assay type: functional; details: NB-4, 72 h, time 3 day
NB-4 [6] = experiment: Cell cycle arrest in human NB4 cells assessed as accumulation of cells at sub-G1 phase at 1 uM incubated for 12 hrs by DAPI staining based flow cytometric analysis (reference value: 2 %); assay type: functional
[7] = Cell cycle arrest in human ATRA-resistant NB4-LR2 cells assessed as accumulation of cells at G2/M phase at 1 uM incubated for 12 hrs by DAPI staining based flow cytometric analysis (reference value: 28 %); assay type: functional
NB-4 [8] = experiment: Antiproliferative activity against human NB4 cells assessed as inhibition of cell viability up to 2 uM incubated for 3 days by CCK8 assay relative to control; assay type: functional; details: time 3 day
NB-4 [9] = experiment: Cell cycle arrest in human NB4 cells assessed as accumulation of cells at G0/G1 phase at 1 uM incubated for 12 hrs by DAPI staining based flow cytometric analysis (reference value: 51 %); assay type: functional
[10] = Induction of apoptosis in human ATRA-resistant NB4-LR2 cells assessed as early apoptotic cells at 1 uM incubated for 24 hrs by Annexin V-FITC/PI staining based flow cytometric analysis (reference value: 1.41 %); assay type: functional
NB-4 [11] = experiment: Cell cycle arrest in human NB4 cells assessed as accumulation of cells at S phase at 1 uM incubated for 12 hrs by DAPI staining based flow cytometric analysis (reference value: 20 %); assay type: functional
[12] = Cell cycle arrest in human ATRA-resistant NB4-LR2 cells assessed as accumulation of cells at G0/G1 phase at 1 uM incubated for 12 hrs by DAPI staining based flow cytometric analysis (reference value: 42 %); assay type: functional
[13] = Cell cycle arrest in human ATRA-resistant NB4-LR2 cells assessed as accumulation of cells at S phase at 1 uM incubated for 12 hrs by DAPI staining based flow cytometric analysis (reference value: 12 %); assay type: functional
[14] = molecular target: T1, Retinoic acid receptor alpha (Homo sapiens) (UniProt P10276); experiment: Agonist activity at full length RARalpha LBD (unknown origin) transfected in HEK293T cells co-transfected with pG5luc reporter and Renilla-luc assessed as transactivation at 0.5 to 1 uM incubated for 12 hrs by luciferase reporter gene assay; assay type: cell-based; details: filed as agonist, dose 0.5-1 µM
T1 sequence (whole entry): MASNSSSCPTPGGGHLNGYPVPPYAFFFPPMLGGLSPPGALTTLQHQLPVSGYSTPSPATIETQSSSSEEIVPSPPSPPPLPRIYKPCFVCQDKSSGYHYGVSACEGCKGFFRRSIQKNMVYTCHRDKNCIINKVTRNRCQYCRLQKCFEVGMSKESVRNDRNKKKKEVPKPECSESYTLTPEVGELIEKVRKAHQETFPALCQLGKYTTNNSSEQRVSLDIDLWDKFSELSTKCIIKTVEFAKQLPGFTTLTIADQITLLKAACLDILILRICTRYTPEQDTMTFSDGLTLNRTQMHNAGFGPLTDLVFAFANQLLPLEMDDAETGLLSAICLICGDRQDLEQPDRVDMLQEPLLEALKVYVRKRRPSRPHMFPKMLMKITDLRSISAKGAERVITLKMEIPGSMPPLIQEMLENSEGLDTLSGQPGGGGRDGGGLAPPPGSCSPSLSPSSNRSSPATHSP

[15] = Cell cycle arrest in human ATRA-resistant NB4-LR2 cells assessed as accumulation of cells at sub-G1 phase at 1 uM incubated for 12 hrs by DAPI staining based flow cytometric analysis (reference value: 18 %); assay type: functional
NB-4 [16] = experiment: Antiproliferative activity against human NB4 cells assessed as inhibition of cell viability incubated for 3 days by CCK8 assay; assay type: functional, cell-based; details: dose <= 3.5 µM, time 3.0 day
NB-4 [17] = experiment: Induction of apoptosis in human NB4 cells assessed as early apoptotic cells at 1 uM incubated for 24 hrs by Annexin V-FITC/PI staining based flow cytometric analysis (reference value: 1.77 %); assay type: functional
NB-4 [18] = experiment: Induction of apoptosis in human NB4 cells assessed as late apoptotic cells at 1 uM incubated for 24 hrs by Annexin V-FITC/PI staining based flow cytometric analysis (reference value: 2.23 %); assay type: functional
[19] = Induction of apoptosis in human ATRA-resistant NB4-LR2 cells assessed as necrotic cells at 5 uM incubated for 24 hrs by Annexin V-FITC/PI staining based flow cytometric analysis (reference value: 0.08 %); assay type: functional
[20] = Induction of apoptosis in human ATRA-resistant NB4-LR2 cells assessed as late apoptotic cells at 5 uM incubated for 24 hrs by Annexin V-FITC/PI staining based flow cytometric analysis (reference value: 7.23 %); assay type: functional
NB-4 [21] = experiment: Induction of apoptosis in human NB4 cells assessed as viable cells at 5 uM incubated for 24 hrs by Annexin V-FITC/PI staining based flow cytometric analysis (reference value: 92.36 %); assay type: functional; details: read-out: Activity
NB-4 [22] = experiment: Induction of apoptosis in human NB4 cells assessed as late apoptotic cells at 5 uM incubated for 24 hrs by Annexin V-FITC/PI staining based flow cytometric analysis (reference value: 3.20 %); assay type: functional
[23] = Induction of apoptosis in human ATRA-resistant NB4-LR2 cells assessed as early apoptotic cells at 5 uM incubated for 24 hrs by Annexin V-FITC/PI staining based flow cytometric analysis (reference value: 5.38 %); assay type: functional
NB-4 [24] = experiment: Induction of apoptosis in human NB4 cells assessed as early apoptotic cells at 5 uM incubated for 24 hrs by Annexin V-FITC/PI staining based flow cytometric analysis (reference value: 4.37 %); assay type: functional
[25] = Induction of apoptosis in human ATRA-resistant NB4-LR2 cells assessed as viable cells at 5 uM incubated for 24 hrs by Annexin V-FITC/PI staining based flow cytometric analysis (reference value: 87.30 %); assay type: functional; details: read-out: Activity
NB-4 [26] = experiment: Induction of apoptosis in human NB4 cells assessed as necrotic cells at 5 uM incubated for 24 hrs by Annexin V-FITC/PI staining based flow cytometric analysis (reference value: 0.07 %); assay type: functional
[27] = Induction of apoptosis in human ATRA-resistant NB4-LR2 cells assessed as viable cells at 10 uM incubated for 24 hrs by Annexin V-FITC/PI staining based flow cytometric analysis (reference value: 87.30 %); assay type: functional; details: read-out: Activity
NB-4 [28] = experiment: Induction of apoptosis in human NB4 cells assessed as late apoptotic cells at 10 uM incubated for 24 hrs by Annexin V-FITC/PI staining based flow cytometric analysis (reference value: 3.20 %); assay type: functional
[29] = Induction of apoptosis in human ATRA-resistant NB4-LR2 cells assessed as early apoptotic cells at 10 uM incubated for 24 hrs by Annexin V-FITC/PI staining based flow cytometric analysis (reference value: 5.38 %); assay type: functional
ATRA-resistant NB4-LR2 [30] = experiment: Induction of apoptosis in human ATRA-resistant NB4-LR2 cells transfected with pLVX-shRXRalpha assessed as increase in cleaved PARP expression at 8 uM incubated for 12 hrs by Western blot analysis; assay type: functional, cell-based
ATRA-resistant NB4-LR2 [31] = experiment: Cell cycle arrest in human ATRA-resistant NB4-LR2 cells transfected with pLVX-shRXRalpha assessed as increase in cyclin B1 expression at 8 uM incubated for 12 hrs by Western blot analysis; assay type: functional, cell-based
NB-4 [32] = experiment: Induction of apoptosis in human NB4 cells assessed as necrotic cells at 10 uM incubated for 24 hrs by Annexin V-FITC/PI staining based flow cytometric analysis (reference value: 0.07 %); assay type: functional
NB-4 [33] = experiment: Induction of apoptosis in human NB4 cells assessed as early apoptotic cells at 10 uM incubated for 24 hrs by Annexin V-FITC/PI staining based flow cytometric analysis (reference value: 4.37 %); assay type: functional
[34] = Induction of apoptosis in human ATRA-resistant NB4-LR2 cells assessed as late apoptotic cells at 10 uM incubated for 24 hrs by Annexin V-FITC/PI staining based flow cytometric analysis (reference value: 7.23 %); assay type: functional
ATRA-resistant NB4-LR2 [35] = experiment: Cell cycle arrest in human ATRA-resistant NB4-LR2 cells transfected with pLVX-shRXRalpha assessed as increase in PLK1 expression at 8 uM incubated for 12 hrs by Western blot analysis; assay type: functional, cell-based
[36] = Induction of apoptosis in human ATRA-resistant NB4-LR2 cells assessed as necrotic cells at 10 uM incubated for 24 hrs by Annexin V-FITC/PI staining based flow cytometric analysis (reference value: 0.08 %); assay type: functional
NB-4 [37] = experiment: Induction of apoptosis in human NB4 cells assessed as viable cells at 10 uM incubated for 24 hrs by Annexin V-FITC/PI staining based flow cytometric analysis (reference value: 92.36 %); assay type: functional; details: read-out: Activity

Chain of Retinoic acid receptor RXR-alpha (P19793 whole entry, the tested form may be a part): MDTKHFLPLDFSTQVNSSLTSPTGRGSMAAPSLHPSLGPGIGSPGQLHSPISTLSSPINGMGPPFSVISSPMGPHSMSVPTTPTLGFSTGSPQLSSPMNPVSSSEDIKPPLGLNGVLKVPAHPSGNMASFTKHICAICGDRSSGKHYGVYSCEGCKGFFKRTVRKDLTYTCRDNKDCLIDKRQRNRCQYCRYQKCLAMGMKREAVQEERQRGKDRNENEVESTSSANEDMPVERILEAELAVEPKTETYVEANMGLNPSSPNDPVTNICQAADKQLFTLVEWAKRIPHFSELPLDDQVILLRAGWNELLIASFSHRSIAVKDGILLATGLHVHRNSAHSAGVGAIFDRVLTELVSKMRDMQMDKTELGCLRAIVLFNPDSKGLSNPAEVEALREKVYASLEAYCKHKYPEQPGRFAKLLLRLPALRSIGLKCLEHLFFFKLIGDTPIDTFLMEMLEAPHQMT

Question: Which Kd [1] does the source give for `Cc1cc2c(cc1-c1cc(/C=C/C(=O)O)ccc1O)C(C)(C)CCC2(C)C` here?
Answer: The Kd was 549 nM.

Question: With `Cc1cc2c(cc1C(=O)/C(Cl)=C/c1ccc(C(=O)O)cc1)C(C)(C)CCC2(C)C` as the molecule, how does the Activity (NB-4 [2]) read?
Answer: The Activity was 41%.

Question: And the Activity [3]?
Answer: Its Activity is 17.39%.

Question: And the Activity (NB-4 [4])?
Answer: The Activity was 15%.

Question: And the inhibition at 0.125 µM (NB-4 [5])?
Answer: Its inhibition at 0.125 µM is ~10%.

Question: What about the Activity (NB-4 [6]) of the same molecule?
Answer: The Activity was 4%.

Question: And the Activity [7]?
Answer: The Activity was 66%.

Question: And the “inhibition (INH)” value (NB-4 [8])?
Answer: The value was 100%.

Question: And the Activity (NB-4 [9])?
Answer: The Activity was 43%.

Question: And the Activity [10]?
Answer: The Activity was 24.72%.

Question: What about the Activity (NB-4 [11]) of the same molecule?
Answer: Its Activity is 12%.

Question: What about the Activity [12] of the same molecule?
Answer: The Activity was 7%.

Question: What about the Activity [13] of the same molecule?
Answer: The Activity was 8%.

Question: And the Activity [14]?
Answer: Its Activity is “Active; Highly Raralpha Selective Agonistic Activity Observed”.

Question: What about the Activity [15] of the same molecule?
Answer: Its Activity is 19%.

Question: And the Activity (NB-4 [16])?
Answer: The Activity was “Dose-dependent-effect”.

Question: And the Activity (NB-4 [17])?
Answer: The Activity was 27.43%.

Question: And the Activity (NB-4 [18])?
Answer: The Activity was 21.24%.

Question: With `O=[N+]([O-])/C=C/c1cccc2ccccc12` as the molecule, how does the Activity [19] read?
Answer: Its Activity is 0.29%.

Question: And the Activity [20]?
Answer: Its Activity is 28.61%.

Question: And the viability at 5 µM (NB-4 [21])?
Answer: Its viability at 5 µM is 78.6%.

Question: What about the Activity (NB-4 [22]) of the same molecule?
Answer: Its Activity is 11.26%.

Question: What about the Activity [23] of the same molecule?
Answer: Its Activity is 28.83%.

Question: What about the Activity (NB-4 [24]) of the same molecule?
Answer: The Activity was 9.62%.

Question: And the viability at 5 µM [25]?
Answer: The viability at 5 µM was 42.3%.

Question: And the Activity (NB-4 [26])?
Answer: The Activity was 0.48%.

Question: With `COc1ccc(CC(=O)N/N=C/c2c(O)ccc3ccccc23)cc1` as the molecule, how does the viability at 10 µM [27] read?
Answer: The viability at 10 µM was 63.5%.

Question: And the Activity (NB-4 [28])?
Answer: Its Activity is 18.15%.

Question: What about the Activity [29] of the same molecule?
Answer: The Activity was 17.31%.

Question: What about the Activity (ATRA-resistant NB4-LR2 [30]) of the same molecule?
Answer: The Activity was “inactive”.

Question: And the Activity (ATRA-resistant NB4-LR2 [31])?
Answer: Its Activity is “inactive”.

Question: What about the Activity (NB-4 [32]) of the same molecule?
Answer: The Activity was 1.78%.

Question: What about the Activity (NB-4 [33]) of the same molecule?
Answer: Its Activity is 20.4%.

Question: And the Activity [34]?
Answer: Its Activity is 18.38%.

Question: What about the Activity (ATRA-resistant NB4-LR2 [35]) of the same molecule?
Answer: Its Activity is “inactive”.

Question: And the Activity [36]?
Answer: Its Activity is 0.77%.

Question: What about the viability at 10 µM (NB-4 [37]) of the same molecule?
Answer: The viability at 10 µM was 60.7%.
